Reference: ChEMBL document CHEMBL5625222, “Design, synthesis, and biological evaluation of 1,6-naphthyridine-2-one derivatives as novel FGFR4 inhibitors for the treatment of colorectal cancer” (Eur J Med Chem, 2023)
Calls of active or inactive are those of the source. The rule behind the calls is not given here.

What was measured:
[1] = Drug uptake in BALB/c mouse colon at 20 mg/kg,ip administrated for 2 hrs by LC-MS analysis; assay type: ADME, organism-based; details: in vivo
RKO [2] = experiment: Antiproliferative activity against human RKO cells assessed as inhibition of cell growth incubated for 48 hrs by EdU staining method; assay type: functional, cell-based
BaF3 = experiment: Antiproliferative activity against mouse BaF3 transfected with FGFR4 assessed as inhibition of cell growth incubated for 72 hrs by CCK-8 assay; assay type: toxicity, cell-based; details: BaF3, 72 h
[3] = Toxicity in ICR mouse assessed as histopathological change in kidney at 20 mg/kg,po administrated for 1 week by hematoxylin and eosin staining analysis; assay type: organism-based; details: in vivo, 168 h, time 1 weeks
[4] = Toxicity in ICR mouse assessed as change in spleen weight at 20 mg/kg,po administrated for 1 week; assay type: organism-based; details: in vivo, 168 h, time 1 weeks
[5] = Toxicity in ICR mouse assessed as change in liver weight at 20 mg/kg,po administrated for 1 week; assay type: organism-based; details: in vivo, 168 h, time 1 weeks
HCT-116 [6] = experiment: Induction of apoptosis in human HCT-116 cells assessed as downregulation of ratio of Bcl-2/Bax expression at 3 to 12 uM incubated for 48 hrs by Western blotting analysis; assay type: functional, cell-based; details: dose 3-12 µM
[7] = Hepatotoxicity in ICR mouse assessed as change in serum creatinine level at 60 mg/kg,po administrated for 1 week; assay type: toxicity, organism-based; details: in vivo, 168 h, time 1 weeks
[8] = Toxicity in ICR mouse assessed as change in liver weight at 60 mg/kg,po administrated for 1 week; assay type: organism-based; details: in vivo, 168 h, time 1 weeks
[9] = Toxicity in BALB/c mouse xenografted with human HCT-116 cells assessed as change in body weight at 20 mg/kg,ip administrated for 2 weeks; assay type: organism-based; details: in vivo, 336 h
RKO [10] = experiment: Anti-migration activity in human RKO cells assessed as upregulation of E-cad expression by Western blotting analysis; assay type: functional, cell-based
RKO [11] = experiment: Anti-migration activity in human RKO cells assessed as change in FAK distribution at 3 to 12 uM by immunofluorescence assay; assay type: functional, cell-based; details: dose 3-12 µM
[12] = Toxicity in ICR mouse assessed as change in kidney weight at 60 mg/kg,po administrated for 1 week; assay type: organism-based; details: in vivo, 168 h, time 1 weeks
RKO [13] = experiment: Antiproliferative activity against human RKO cells assessed as inhibition of colony formation incubated for 2 weeks by crystal violet staining method; assay type: functional, cell-based
HCT-116 [14] = experiment: cells; details: Homo sapiens, HCT-116, 48 h
Description: Antiproliferative activity against human HCT-116 cells assessed as inhibition of cell growth incubated for 48 hrs by MTT assay

[15] = Hepatotoxicity in ICR mouse assessed as change in serum AST level at 20 mg/kg,po administrated for 1 week; assay type: toxicity, organism-based; details: in vivo, 168 h, time 1 weeks
[16] = Toxicity in ICR mouse assessed as change in spleen weight at 60 mg/kg,po administrated for 1 week; assay type: organism-based; details: in vivo, 168 h, time 1 weeks
[17] = Toxicity in ICR mouse assessed as change in body weight at 20 mg/kg,po administrated for 1 week; assay type: organism-based; details: in vivo, 168 h, time 1 weeks
HCT-116 [18] = experiment: Antitumor activity against human HCT-116 cells xenografted in BALB/c mouse assessed as downregulation of FGFR4 signalling pathway in tumor at 10 mg/kg,ip administrated for 2 weeks by Western blotting analysis; assay type: functional, organism-based
RKO [19] = experiment: Induction of apoptosis in human RKO cells assessed as downregulation of ratio of Bcl-2/Bax expression at 3 to 12 uM incubated for 48 hrs by Western blotting analysis; assay type: functional, cell-based; details: dose 3-12 µM
[20] = Antiproliferative activity against human Intestinal epithelial cell assessed as inhibition of cell growth incubated for 48 hrs by MTT assay; assay type: toxicity, cell-based; details: human intestinal epithelial cells
HCT-116 [21] = experiment: Antitumor activity against human HCT-116 cells xenografted in BALB/c mouse assessed as decrease in CD68 expression in tumor tissue at ip administrated for 2 weeks by immunohistochemical analysis; assay type: functional, organism-based
HCT-116 [22] = experiment: Antitumor activity against human HCT-116 cells xenografted in BALB/c mouse assessed as tumor growth inhibition at 20 mg/kg,ip administrated for 2 weeks relative to control; assay type: functional; details: HCT-116, 336 h, read-out: TGI
SW480 [23] = experiment: Anti-migration activity in human SW480 cells assessed as change in FAK expression at 3 to 12 uM by Western blotting analysis; assay type: functional, cell-based; details: dose 3-12 µM
[24] = Toxicity in ICR mouse assessed as change in lung weight at 60 mg/kg,po administrated for 1 week; assay type: organism-based; details: in vivo, 168 h, time 1 weeks
[25] = Hepatotoxicity in ICR mouse assessed as change in serum AST level at 60 mg/kg,po administrated for 1 week; assay type: toxicity, organism-based; details: in vivo, 168 h, time 1 weeks
HCT-116 [26] = experiment: Induction of apoptosis in human HCT-116 cells at 3 to 12 uM incubated for 48 hrs by Annexin V-FITC/PI staining based flow cytometric analysis relative to control; assay type: functional; details: dose 3-12 µM
[27] = Toxicity in BALB/c mouse xenografted with human HCT-116 cells assessed as change in spleen weight at 10 mg/kg,ip administrated for 2 weeks; assay type: organism-based; details: in vivo, 336 h
[28] = Toxicity in BALB/c mouse xenografted with human HCT-116 cells assessed as change in serum creatinine level at 10 mg/kg,ip administrated for 2 weeks; assay type: organism-based; details: in vivo, 336 h
HCT-116 [29] = experiment: Antitumor activity against human HCT-116 cells xenografted in BALB/c mouse assessed as upregulation of E-cad expression in tumor at 20 mg/kg,ip administrated for 2 weeks by Western blotting analysis; assay type: functional, organism-based
HCT-116 [30] = experiment: Antiproliferative activity against human HCT-116 cells assessed as inhibition of cell growth incubated for 48 hrs by EdU staining method; assay type: functional, cell-based
[31] = Toxicity in BALB/c mouse xenografted with human HCT-116 cells assessed as change in heart weight at 20 mg/kg,ip administrated for 2 weeks; assay type: organism-based; details: in vivo, 336 h
HCT-116 [32] = experiment: Antitumor activity against human HCT-116 cells xenografted in BALB/c mouse assessed as upregulation of E-cad expression in tumor at 10 mg/kg,ip administrated for 2 weeks by Western blotting analysis; assay type: functional, organism-based
[33] = Toxicity in ICR mouse assessed as histopathological change in liver at 60 mg/kg,po administrated for 1 week by hematoxylin and eosin staining analysis; assay type: organism-based; details: in vivo, 168 h, time 1 weeks
HCT-116 [34] = experiment: Antitumor activity against human HCT-116 cells xenografted in BALB/c mouse assessed as downregulation of FAK expression in tumor at 20 mg/kg,ip administrated for 2 weeks by Western blotting analysis; assay type: functional, organism-based
HCT-116 [35] = experiment: Antitumor activity against human HCT-116 cells xenografted in BALB/c mouse assessed as decrease in E-Cad expression in tumor tissue at ip administrated for 2 weeks by immunohistochemical analysis; assay type: functional, organism-based
HCT-116 [36] = experiment: Antitumor activity against human HCT-116 cells xenografted in BALB/c mouse assessed as decrease in FAK expression in tumor tissue at ip administrated for 2 weeks by immunohistochemical analysis; assay type: functional, organism-based
[37] = Toxicity in BALB/c mouse xenografted with human HCT-116 cells assessed as change in serum AST level at 20 mg/kg,ip administrated for 2 weeks; assay type: organism-based; details: in vivo, 336 h
RKO [38] = experiment: cells; details: Homo sapiens, 48 h
Description: Antiproliferative activity against human RKO cells assessed as inhibition of cell growth incubated for 48 hrs by MTT assay

HCT-116 [39] = experiment: Antitumor activity against human HCT-116 cells xenografted in BALB/c mouse assessed as downregulation of N-cad expression in tumor at 10 mg/kg,ip administrated for 2 weeks by Western blotting analysis; assay type: functional, organism-based
SW480 [40] = experiment: Induction of apoptosis in human SW480 cells assessed as downregulation of ratio of Bcl-2/Bax expression at 3 to 12 uM incubated for 48 hrs by Western blotting analysis; assay type: functional, cell-based; details: dose 3-12 µM

C=CC(=O)NCCCn1c(=O)c(-c2c(Cl)c(OC)cc(OC)c2Cl)cc2cnc(Nc3c(C)cccc3NC(=O)C=C)cc21
Drug uptake [1]: Active | Activity (RKO [2]): Dose-Dependent Effect | IC50 (BaF3): 0.00948 µM | Activity [3]: Non-Toxic | Activity [4]: Non-Toxic | Activity [5]: Non-Toxic | Activity (HCT-116 [6]): Active | Activity [7]: Non-Toxic | Activity [8]: Non-Toxic | Activity [9]: Non-Toxic | Activity (RKO [10]): Dose-Dependent Effect | Activity (RKO [11]): Active | Activity [12]: Non-Toxic | Activity (RKO [13]): Dose-Dependent Effect | IC50 (HCT-116 [14]): 4.24 µM | Activity [15]: Non-Toxic | Activity [16]: Non-Toxic | Activity [17]: Non-Toxic | Activity (HCT-116 [18]): Active | Activity (RKO [19]): Active | IC50 at 48 h [20]: 23.8 µM | Activity (HCT-116 [21]): Dose-Dependent Effect | inhibition in vivo at 20 mg/kg (HCT-116 [22]): 70.5% | Activity (SW480 [23]): inactive | Activity [24]: Non-Toxic | Activity [25]: Non-Toxic | Activity (HCT-116 [26]): 0.64% | Activity [27]: Non-Toxic | Activity [28]: Non-Toxic | Activity (HCT-116 [29]): Active | Activity (HCT-116 [30]): Dose-Dependent Effect | Activity [31]: Non-Toxic | Activity (HCT-116 [32]): Active | Activity [33]: Non-Toxic | Activity (HCT-116 [34]): Active | Activity (HCT-116 [35]): Dose-Dependent Effect | Activity (HCT-116 [36]): Dose-Dependent Effect | Activity [37]: Non-Toxic | IC50 (RKO [38]): 11.6 µM | Activity (HCT-116 [39]): Active | Activity (SW480 [40]): Active
